Assay [1] concerns endogenous NAMPT in U2OS cells. The experiment in a line: Cellular NAD+ modulation assay (NAD/NADH-Glo, U2OS cells). It counts as cell-based. As to conditions: Homo sapiens; for maximal fold induction: read-out: Cellular Emax. The method, boiled down:
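NAD/NADH-Glo luminescence quantified NAD+ after acid treatment (60 °C, 15 min) and neutralization of DTAB lysates. Beforehand, U2OS cells seeded 16 h earlier received compound concentration series for 24 h at 37 °C. Values given as half-maximal activation concentration (EC50) and maximal fold change versus DMSO (Emax).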

Assay [2] has as its target T1, human enzyme NAMPT (full length) (Homo sapiens, UniProt P43490).
T1 construct: human enzyme NAMPT (full length)
The experiment in a line: NMN fluorescence biochemical assay (stimulation of NMN synthesis by NAMPT). To be noted: for EC50: concentration giving half-maximal activation, read-out: Enzymatic EC50; for Enzymatic Emax: fold change of maximal activation compared to DMSO. The method, boiled down: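 Full-length human NAMPT (100 nM) was preincubated 15 min at 37 °C with compound in 50 mM Tris-HCl pH 7.5, 10 mM MgCl2, 2 mM DTT, then reacted 1 h at 37 °C with 50 μM NAM, 100 μM PRPP, 4 mM ATP (stated solution concentrations). NMN was derivatised with acetophenone/KOH then formic acid and read at Ex/Em 382/445 nm; EC50 and Emax (fold over DMSO) reported.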

[3] abbreviates: 24 hours incubation, cellular NAD+.
The mark [4] stands for this setting: NMN fluorescence assay, purified human NAMPT 100 nM.
The mark [5] stands for this setting: 24 hours incubation with compound.
Setting [6] is: NMN synthesis by purified human NAMPT (100 nM).

Where two headings read alike, the source gives them in different places.

T1 sequence (P43490 whole entry): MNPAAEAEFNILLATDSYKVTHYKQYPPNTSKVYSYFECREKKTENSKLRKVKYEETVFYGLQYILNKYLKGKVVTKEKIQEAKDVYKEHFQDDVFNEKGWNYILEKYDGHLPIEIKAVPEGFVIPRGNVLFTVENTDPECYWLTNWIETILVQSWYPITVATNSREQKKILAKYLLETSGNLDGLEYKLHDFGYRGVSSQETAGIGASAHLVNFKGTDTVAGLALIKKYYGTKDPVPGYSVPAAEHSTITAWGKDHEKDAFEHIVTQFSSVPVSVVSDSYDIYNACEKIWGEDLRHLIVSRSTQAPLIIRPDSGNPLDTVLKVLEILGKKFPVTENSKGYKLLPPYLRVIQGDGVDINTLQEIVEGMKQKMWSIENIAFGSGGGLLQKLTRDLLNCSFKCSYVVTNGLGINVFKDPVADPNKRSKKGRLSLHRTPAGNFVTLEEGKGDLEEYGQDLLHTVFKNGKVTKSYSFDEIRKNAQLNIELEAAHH

By EC50 is commonly meant the concentration that produces a half-maximal response. As to `Cc1ccnc(C(N)=O)c1CC1c2ccccc2C(=O)N1Cc1ccc2[nH]nnc2c1` (centres unmarked) [Compound 444, 3-((2-((1H-benzo[d][1,2,3]triazol-5-yl)methyl)-3-oxoisoindolin-1-yl)methyl)-4-methylpicolinamide], in assay [1] (setting [3]), the half-maximal effective concentration (EC50) fell in the range of 500 to 5000 nM and the maximal fold induction is greater than 1.5. Besides, in assay [2] (setting [4]), the EC50 fell in the range of 500 to 5000 nM. Moreover, the “Enzymatic Emax” value in assay [2] is on record as “A (A>3)”.

`Cc1nn(C)c(C#N)c1CC1c2ccccc2C(=O)N1CC1CC2(CNC(=O)O2)C1` (centres unmarked) [Compound 479, 1,3-dimethyl-4-((3-oxo-2-((6-oxo-5-oxa-7-azaspiro[3.4]octan-2-yl)methyl)isoindolin-1-yl)methyl)-1H-pyrazole-5-carbonitrile]: in assay [1] (setting [3]), the EC50 is less than 500 nM and the maximal fold induction was greater than 1.5. In addition, in assay [2] (setting [4]), the EC50 is 500 to 5000 nM. Also, in assay [2], the “Enzymatic Emax” value was “B (3≥B>2)”.

`O=C1c2ccccc2C(Cc2ncccc2Br)N1CCCc1c[nH]nn1` (centres unmarked) [Compound 347, 2-(3-(1H-1,2,3-triazol-4-yl)propyl)-3-((3-bromopyridin-2-yl)methyl)isoindolin-1-one]: the EC50 in assay [1] (setting [3]) and in assay [2] (setting [4]) was 500 to 5000 nM in each case. In assay [1] (setting [3]), the maximal fold induction was greater than 1.5. Further, in assay [2], the “Enzymatic Emax” value is listed as “A (A>3)”.

For `Cn1ncc(Cl)c1CC1c2ccccc2C(=O)N1Cc1cnc(O)o1` (centres unmarked) [Compound 605, 3-((4-chloro-1-methyl-1H-pyrazol-5-yl)methyl)-2-((2-hydroxyoxazol-5-yl)methyl)isoindolin-1-one], in assay [1] (setting [3]), the EC50 was less than 500 nM and the maximal fold induction was greater than 1.5. The EC50 in assay [2] (setting [4]) is 500 to 5000 nM. The “Enzymatic Emax” value in assay [2] was “A (A>3)”.

On to `[2H]C([2H])([2H])Oc1ccc(CN2C(=O)c3ccccc3C2Cc2c(C)ccnc2C#N)cc1` (centres unmarked) [Compound 583, 3-((2-(4-(methoxy-d3)benzyl)-3-oxoisoindolin-1-yl)methyl)-4-methylpicolinonitrile], for which, in assay [1] (setting [3]), the EC50 was less than 500 nM and the maximal fold induction is greater than 1.5. The EC50 in assay [2] (setting [4]) is 500 to 5000 nM. Besides, the “Enzymatic Emax” value in assay [2] is recorded as “A (A>3)”.

As to `Cn1ncc(Cl)c1CC1c2cc(C3COC3)ccc2C(=O)N1CC1CC2(CNC(=O)O2)C1` (centres unmarked) [Compound 473, 2-((3-((4-chloro-1-methyl-1H-pyrazol-5-yl)methyl)-5-(oxetan-3-yl)-1-oxoisoindolin-2-yl)methyl)-5-oxa-7-azaspiro[3.4]octan-6-one], in assay [1] (setting [3]), the EC50 was in the range of 500 to 5000 nM and the maximal fold induction was greater than 1.5. Besides, the EC50 in assay [2] (setting [4]) lay in the range of 500 to 5000 nM. Further, the “Enzymatic Emax” value in assay [2] is given as “B (3≥B>2)”.

For the compound `[2H]C1([2H])NC(=O)OC12CC(CN1C(=O)c3ccccc3C1Cc1c(Cl)cnn1C)C2` (centres unmarked) [Compound 535, 2-((1-((4-chloro-1-methyl-1H-pyrazol-5-yl)methyl)-3-oxoisoindolin-2-yl)methyl)-5-oxa-7-azaspiro[3.4]octan-6-one-8,8-d2], in assay [1] (setting [3]), the half-maximal effective concentration (EC50) is less than 500 nM and the maximal fold induction is greater than 1.5. In addition, in assay [2] (setting [4]), the EC50 was in the range of 500 to 5000 nM. Besides, the “Enzymatic Emax” value in assay [2] is “A (A>3)”.

Take `Cn1ncc(Cl)c1CC1c2cc(OC3CNC3)ccc2C(=O)N1Cc1ccc2[nH]nnc2c1` (centres unmarked) [Compound 437, 2-((1H-benzo[d][1,2,3]triazol-5-yl)methyl)-5-(azetidin-3-yloxy)-3-((4-chloro-1-methyl-1H-pyrazol-5-yl)methyl)isoindolin-1-one]: in assay [1] (setting [3]), the concentration giving a half-maximal response (EC50) lay in the range of 5000 to 50000 nM and the maximal fold induction is greater than 1.5. In addition, the EC50 in assay [2] (setting [4]) is less than 500 nM. In addition, the “Enzymatic Emax” value in assay [2] was “A (A>3)”.

Consider `N#Cc1nccc(Br)c1CC1c2ccccc2C(=O)N1Cc1ccc2[nH]nnc2c1` (centres unmarked) [Compound 282, 3-((2-((1H-benzo[d][1,2,3]triazol-5-yl)methyl)-3-oxoisoindolin-1-yl)methyl)-4-bromopicolinonitrile], for which, in assay [1] (setting [5]), the EC50 was less than 500 nM and the maximal fold induction fell in the range of 1.2 to 1.5. In addition, in assay [2] (setting [6]), the EC50 is less than 500 nM. For the same compound, the “Enzymatic Emax” value in assay [2] is “B (3≥B>2)”.

`N#CCn1cc(Cl)c(CC2c3ccccc3C(=O)N2Cc2ccc3[nH]nnc3c2)n1` (centres unmarked) [Compound 410, 2-(3-((2-((1H-benzo[d][1,2,3]triazol-5-yl)methyl)-3-oxoisoindolin-1-yl)methyl)-4-chloro-1H-pyrazol-1-yl)acetonitrile]: in assay [1] (setting [3]), the EC50 fell in the range of 500 to 5000 nM and the maximal fold induction is greater than 1.5. In assay [2] (setting [4]), the EC50 is less than 500 nM. For the same compound, in assay [2], the “Enzymatic Emax” value is “B (3≥B>2)”.

Regarding `CC1c2cc(C3CCCC3)ccc2C(=O)N1Cc1ccc2[nH]c(=O)oc2c1` (single isomer, unassigned) [Compound 304], in assay [1] (setting [5]), the EC50 is 500 to 5000 nM and the maximal fold induction lay in the range of 1.2 to 1.5. For the same compound, the 50% effective concentration (EC50) in assay [2] (setting [6]) was in the range of 500 to 5000 nM. The “Enzymatic Emax” value in assay [2] is “C (2≥C)”.

With `N#Cc1ccc(CC2c3ccccc3C(=O)N2Cc2ccc3[nH]c(=O)oc3c2)c(F)c1` (centres unmarked) [Compound 199, 3-fluoro-4-((3-oxo-2-((2-oxo-2,3-dihydrobenzo[d]oxazol-6-yl)methyl)isoindolin-1-yl)methyl)benzonitrile], in assay [1] (setting [5]), the EC50 was less than 500 nM and the maximal fold induction was greater than 1.5. In addition, the EC50 in assay [2] (setting [6]) was less than 500 nM. The “Enzymatic Emax” value in assay [2] was “A (A>3)”.

Regarding `CC1c2cc(NC3CC4(CNC4)C3)ccc2C(=O)N1Cc1ccc2[nH]c(=O)oc2c1` (centres unmarked) [Compound 79, 6-((5-((2-azaspiro[3.3]heptan-6-yl)amino)-3-methyl-1-oxoisoindolin-2-yl)methyl)benzo[d]oxazol-2(3H)-one], in assay [1] (setting [5]), the EC50 was less than 500 nM and the maximal fold induction was no more than 1.2. The EC50 in assay [2] (setting [6]) was no less than 5000 nM. Moreover, in assay [2], the “Enzymatic Emax” value is “A (A>3)”.

Consider `O=C1c2ccccc2C(Cc2ccccc2F)N1Cc1ccc2[nH]c(=O)oc2c1` (centres unmarked) [Compound 146, 6-((1-(2-fluorobenzyl)-3-oxoisoindolin-2-yl)methyl)benzo[d]oxazol-2(3H)-one], for which, in assay [1] (setting [5]), the EC50 is less than 500 nM and the maximal fold induction is greater than 1.5. For the same compound, in assay [2] (setting [6]), the EC50 was less than 500 nM. In assay [2], the “Enzymatic Emax” value is listed as “A (A>3)”.

Take `O=C1NC(=O)C2(CC(CN3C(=O)c4ccccc4C3Cc3ncccc3Br)C2)O1` (centres unmarked) [Compound 476, 2-((1-((3-bromopyridin-2-yl)methyl)-3-oxoisoindolin-2-yl)methyl)-5-oxa-7-azaspiro[3.4]octane-6,8-dione]: in assay [1] (setting [3]), the EC50 lay within 5000 to 50000 nM and the maximal fold induction was greater than 1.5. Further, the 50% effective concentration (EC50) in assay [2] (setting [4]) is no less than 5000 nM. For the same compound, the “Enzymatic Emax” value in assay [2] is given as “B (3≥B>2)”.

As for `C/C(=C\c1c[nH]nn1)CN1C(=O)c2ccccc2C1Cc1ncccc1Br` (centres unmarked) [Compound 416, (E)-3-((3-bromopyridin-2-yl)methyl)-2-(2-methyl-3-(1H-1,2,3-triazol-4-yl)allyl)isoindolin-1-one], in assay [1] (setting [3]), the EC50 was less than 500 nM and the maximal fold induction is greater than 1.5. In addition, the EC50 in assay [2] (setting [4]) is less than 500 nM. For the same compound, in assay [2], the “Enzymatic Emax” value is “B (3≥B>2)”.

On to `CC1c2ccccc2C(=O)N1Cc1ccc(NC(=O)NCc2ccncc2)cc1` (centres unmarked) [Compound 291, 1-(4-((1-methyl-3-oxoisoindolin-2-yl)methyl)phenyl)-3-(pyridin-4-ylmethyl)urea], for which the EC50 in assay [1] (setting [5]) and in assay [2] (setting [6]) was less than 500 nM each time. Moreover, the maximal fold induction in assay [1] (setting [5]) was 1.2 to 1.5. Moreover, in assay [2], the “Enzymatic Emax” value is given as “C (2≥C)”.

(Values after patent publication US20260078130A1, “NAMPT MODULATORS, PREPARATIONS, AND USES THEREOF” (SIRONAX LTD., priority 2022, published 2026).)
